Reference: ChEMBL document CHEMBL1201862, “PubChem BioAssay data set” (2004)
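1) Cells in 96-well plates. 2) Compound, 48 h, 5 concentrations. 3) Linear interpolation between surrounding doses. 4) Unreached endpoint = highest concentration. GI50 = concentration required for 50% inhibition of growth.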 Calls of active or inactive are those of the source. Rule as the data show it: active = GI50 up to about 1.1 µM and inactive = higher.

How the values were obtained:
Test in all cases: inhibition of tumour cell growth, NCI panel, 48 h
A549 = test system: A549
DU-145 = test system: DU-145
EKVX = test system: EKVX
HCT-116 = test system: HCT-116
HCT-15 = test system: HCT-15
HT-29 = test system: HT-29
MCF7 = test system: MCF7
MDA-MB-435 = test system: MDA-MB-435
MOLT-4 = test system: MOLT-4
NCI-H522 = test system: NCI-H522
OVCAR-3 = test system: OVCAR-3
OVCAR-5 = test system: OVCAR-5
PC-3 = test system: PC-3
SF-268 = test system: SF-268
SF-295 = test system: SF-295
SF-539 = test system: SF-539
SK-MEL-2 = test system: SK-MEL-2
T47D = test system: T47D
TK-10 = test system: TK-10

| Structure (SMILES) | GI50 (A549) | GI50 (DU-145) | GI50 (EKVX) | GI50 (HCT-116) | GI50 (HCT-15) | GI50 (HT-29) | GI50 (MCF7) | GI50 (MDA-MB-435) | GI50 (MOLT-4) | GI50 (NCI-H522) | GI50 (OVCAR-3) | GI50 (OVCAR-5) | GI50 (PC-3) | GI50 (SF-268) | GI50 (SF-295) | GI50 (SF-539) | GI50 (SK-MEL-2) | GI50 (T47D) | GI50 (TK-10) |
| --- | --- | --- | --- | --- | --- | --- | --- | --- | --- | --- | --- | --- | --- | --- | --- | --- | --- | --- | --- |
| C/C(=N\NC(=S)N1CCCCCCCCCCCC1)c1ccccn1 | 0.356 µM (active) | 0.533 µM (active) | 0.0514 µM (active) | 0.447 µM (active) | 0.216 µM | 0.0356 µM (active) | 0.0865 µM (active) | 0.15 µM (active) | 0.0318 µM (active) | 0.0855 µM (active) | 0.0346 µM (active) | 0.971 µM (active) | 0.107 µM (active) | 0.225 µM (active) | 0.324 µM (active) | 0.199 µM (active) | 0.299 µM (active) | 0.233 µM (active) | 0.166 µM (active) |
| O=C(/C=C/C(=O)N1CCCC1)N1CCCC1 | > 100 µM (inactive) | > 100 µM (inactive) | > 100 µM (inactive) | > 100 µM (inactive) | > 100 µM | > 100 µM (inactive) | > 100 µM (inactive) | > 100 µM (inactive) | > 100 µM (inactive) | > 100 µM (inactive) | > 100 µM (inactive) | > 100 µM (inactive) | > 100 µM (inactive) | > 100 µM (inactive) | > 100 µM (inactive) | > 100 µM (inactive) | > 100 µM (inactive) | > 100 µM (inactive) | > 100 µM (inactive) |
| C=CCC(CCC(C)=O)(C(=O)OCC)C(=O)OCC | > 100 µM (inactive) | > 100 µM (inactive) | > 100 µM (inactive) | > 100 µM (inactive) | > 100 µM | > 100 µM (inactive) | > 100 µM (inactive) | > 100 µM (inactive) | > 100 µM (inactive) | > 100 µM (inactive) | > 100 µM (inactive) | > 100 µM (inactive) | > 100 µM (inactive) | > 100 µM (inactive) | > 100 µM (inactive) | > 100 µM (inactive) | > 100 µM (inactive) | > 100 µM (inactive) | > 100 µM (inactive) |
| O=[N+]([O-])c1ccc(/C=N/n2c(CO)nc3ccccc32)o1 | 10.5 µM (inactive) | 3.27 µM (inactive) | 11.3 µM (inactive) | 1.71 µM (inactive) | 2.84 µM | 2.8 µM (inactive) | 2.96 µM (inactive) | 3.4 µM (inactive) | 1.1 µM (active) | 2.28 µM (inactive) | 2.22 µM (inactive) | 11.9 µM (inactive) | 10.2 µM (inactive) | 10.4 µM (inactive) | 11.7 µM (inactive) | 17.9 µM (inactive) | 4.67 µM (inactive) | 20.5 µM (inactive) | 6.55 µM (inactive) |
| NC1=CN(CCCO)C2=N/C(=C\c3ccccc3)C(=O)N12 | > 100 µM (inactive) | > 100 µM (inactive) | 69.5 µM (inactive) | > 100 µM (inactive) | > 100 µM | > 100 µM (inactive) | > 100 µM (inactive) | > 100 µM (inactive) | > 100 µM (inactive) | 80.4 µM (inactive) | > 100 µM (inactive) | > 100 µM (inactive) | > 100 µM (inactive) | > 100 µM (inactive) | > 100 µM (inactive) | > 100 µM (inactive) | > 100 µM (inactive) | > 100 µM (inactive) | > 100 µM (inactive) |
| O=S(=O)(O)c1cc(S(=O)(=O)O)c2c(/N=N/c3cccc4ccccc34)c(O)ccc2c1 | > 100 µM (inactive) | > 100 µM (inactive) | > 100 µM (inactive) | > 100 µM (inactive) | > 100 µM | > 100 µM (inactive) | > 100 µM (inactive) | > 100 µM (inactive) | > 100 µM (inactive) | > 100 µM (inactive) | > 100 µM (inactive) | > 100 µM (inactive) | > 100 µM (inactive) | > 100 µM (inactive) | > 100 µM (inactive) | > 100 µM (inactive) | > 100 µM (inactive) | > 100 µM (inactive) | > 100 µM (inactive) |
| Nc1ccc(-c2nc3cc(F)ccc3s2)cc1I | 23.6 µM (inactive) | 43.7 µM (inactive) | 9.46 µM (inactive) | 18.5 µM (inactive) | 1.34 µM | 0.889 µM (active) | < 0.0154 µM (active) | > 80.9 µM (inactive) | > 100 µM (inactive) | 13.6 µM (inactive) | 0.255 µM (active) | 0.274 µM (active) | 24.2 µM (inactive) | 16.5 µM (inactive) | 14.2 µM (inactive) | 15.6 µM (inactive) | 20.2 µM (inactive) | 0.0658 µM (active) | 0.0351 µM (active) |
| NS(=O)(=O)c1ccc(/N=N/c2ccc(O)cc2)cc1 | 28.3 µM (inactive) | 49.7 µM (inactive) | 20.7 µM (inactive) | 37.3 µM (inactive) | 59.2 µM | 50.2 µM (inactive) | 39.4 µM (inactive) | 11.3 µM (inactive) | 4.25 µM (inactive) | 33.7 µM (inactive) | 66.4 µM (inactive) | > 100 µM (inactive) | 66.7 µM (inactive) | 53.6 µM (inactive) | 29.9 µM (inactive) | 31.9 µM (inactive) | 32.7 µM (inactive) | 31.3 µM (inactive) | > 100 µM (inactive) |
